These are literature values, as cited in patent US20170105937A1, “OLAPARIB CO-PRECIPITATE AND PREPARATION METHOD THEREOF” (CADILA HEALTHCARE LIMITED, priority 2015, published 2017).

For this data set the following is noted: poor solubility and moderate permeability.

On to `O=C(c1cc(Cc2n[nH]c(=O)c3ccccc23)ccc1F)N1CCN(C(=O)C2CC2)CC1` [Olaparib, 4-[3-(4-cyclopropanecarbonyl-piperazine-1-carbonyl)-4-fluoro-benzyl]-2H-phthalazin-1-one], for which the “Biopharmaceutics Classification System (BCS) class” value was “class 4”.
